The test system of one assay is SW620 cells. Put plainly: Cellular phospho-ERK assay, SW620 cells (homozygous KRAS-G12V). It counts as cell-based. To be noted: Homo sapiens, SW-620, KRAS-G12V, 2 hours, read-out: SW620 pERK IC50. The procedure:
(§1) Procedure for Cellular Phospho-ERK Assay in KRAS Wild Type and Mutant (G12D, G12V) Cell Lines
(§2) MKN-1 cells (JCRB JCRB0252) containing amplified wild-type KRAS, were cultured in growth medium that contains RPMI 1640-GlutaMAX™-I (ThermoFisher Scientific 61870) containing 10% heat inactivated fetal bovine serum (ThermoFisher Scientific 10091148), 1 mM sodium pyruvate and 10 mM HEPES. PANC08.13 cells (ATCC® CRL-2551™), containing homozygous KRAS-G12D activating mutation, were cultured in growth medium made of RPMI1640-GlutaMAX™-I (ThermoFisher Scientific 61870) containing 15% heat inactivated fetal bovine serum (ThermoFisher Scientific 10091148)). AsPC-1 cells (ATCC® CRL-1682™), containing homozygous KRAS-G12D activating mutation, were cultured in T150 flask in growth medium (RPMI medium 1640-GlutaMAX™-I (ThermoFisher Scientific 61870) containing 10% fetal bovine serum (ThermoFisher Scientific 10091148)). SW620 cells (ATCC® […]), containing homozygous KRAS-G12V activating mutation, were cultured in growth medium that contains RPMI 1640-GlutaMAX™-I (ThermoFisher Scientific 61870) containing 10% heat inactivated fetal bovine serum (ThermoFisher Scientific 10091148).
(§3) Cells for the assay were harvested in growth medium after TrypLE (ThermoFisher scientific 12604021) digestion and were seeded in a 384-well collagen coated cell culture plate (Corning 356702) at a density of 10,000-15,000 cells/20 μL/well, and incubated at 37° C., 5% CO2 overnight. The compound (with 10 mM stock concentration) dose-response titrations were prepared [30 μM final ERK detection assay concentration and 1:3 dilutions, 10-point dose response] and appropriate amounts (270 nL) of test compounds were dispensed in a 384-well intermediate plate using an Echo 550 liquid handler. 30 μL/well of RPMI medium 1640-GlutaMAX™—I was added to the intermediate plate and the contents of the intermediate plate (10 μL/well) were then transferred to the 384-well collagen coated cell culture plate, which was incubated at 37° C., 5% CO2 for 2 hours. After removal of medium from the collagen coated cell culture plate, cells were lysed in lysis buffer from Alpha SureFire® Ultra™ Multiplex p-ERK and total ERK assay kit (PerkinElmer MPSU-PTERK) containing Halt™ Protease and Phosphatase inhibitor cocktail (ThermoFisher Scientific 78446) at room temperature with constant shaking at 300 rpm for 30 minutes. The cell lysates were then transferred to an OptiPlate-384 plate (PerkinElmer 6005620), and the phosphorylation of ERK (p-ERK) and total ERK levels were detected by Alpha SureFire® Ultra™ Multiplex p-EEK kit and total ERK assay kit (PerkinElmer MPSU-PTERK) following the manufacturer's protocol. Assay plates were read on a En Vision Multimode Plate Reader (PerkinElmer), and the ratio of p-ERK vs. total ERK in each well was used as the final readout. Dose response curves were analyzed using a 4-parameter logistic model to calculate IC50 values using Spotfire software.

The next assay has as its system AsPC-1 cells. The experiment in a line: Cellular phospho-ERK assay, AsPC-1 cells (homozygous KRAS-G12D). It counts as cell-based. The conditions noted are these: Homo sapiens, ASPC1, 2 h, read-out: AsPC1 pERK IC50. In short, it runs like this:
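Readout: p-ERK/total ERK ratio measured by Alpha SureFire Ultra multiplex in lysates after 2 h compound exposure (37 °C, 5% CO2). Dosing ran 10 points, 1:3 dilutions, highest final concentration 30 μM. IC50 values derived by four-parameter logistic regression.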

A further assay deals with KRAS-G12D (Homo sapiens, UniProt P01116, G12D). The experiment in a line: SOS-catalyzed nucleotide exchange assay (Procedure A, TR-FRET), KRAS-G12D. It counts as biochemical. The conditions noted are these: nucleotide exchange, read-out: KRAS G12D GNE IC50. The method in brief: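 Signal ratio (520/495 nm, excitation 340 nm) reports Bodipy-GDP retention on biotinylated RAS after SOS-catalyzed exchange with 3 mM GTP. SOS was 40 nM, except 160 nM for G12V. Room-temperature exchange lasted 60 min (90 min for G12V), following a 60 min compound preincubation.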

A further assay addresses KRAS-WT (Homo sapiens, UniProt P01116). Put plainly: SOS-catalyzed nucleotide exchange assay (Procedure A, TR-FRET), KRAS-WT. The conditions noted are these: nucleotide exchange, read-out: KRAS WT GNE IC50. It counts as biochemical. The method in brief: (§4)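 RAS (G12C carries C51S/C80L/C118S) loaded with Bodipy-GDP, complexed with Tb-streptavidin; cpd 60 min RT; + SOS/3 mM GTP. G12C 3/40 nM, WT 1/40, NRAS 1.25/40 nM RAS/SOS, 60 min; G12V 1.25/160 nM, 90 min. Normalized to DMSO and saturating inhibitor; 4PL fit.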
In general terms: TR-FRET usually uses a lanthanide donor and a delayed reading to cut background.

Another assay addresses KRAS-G12V (Homo sapiens, UniProt P01116, G12V). The experiment in a line: SOS-catalyzed nucleotide exchange assay (Procedure A, TR-FRET), KRAS-G12V. To be noted: nucleotide exchange, read-out: KRAS G12V GNE IC50. It counts as biochemical. In short, it runs like this:
as §4

The next assay relates to MKN-1 cells. The experiment in a line: Cellular phospho-ERK assay, MKN-1 cells (amplified wild-type KRAS). The format is cell-based. The conditions noted are these: Homo sapiens, amplified wild-type KRAS, 2 hours, read-out: MKN1 pERK IC50. The procedure: as §1, §2, §3

SMILES strings stand for the structures. Where two headings read alike, the source gives them in different places.

KRAS-WT, sequence (P01116 with tags, fused parts or gaps isoform P01116-2): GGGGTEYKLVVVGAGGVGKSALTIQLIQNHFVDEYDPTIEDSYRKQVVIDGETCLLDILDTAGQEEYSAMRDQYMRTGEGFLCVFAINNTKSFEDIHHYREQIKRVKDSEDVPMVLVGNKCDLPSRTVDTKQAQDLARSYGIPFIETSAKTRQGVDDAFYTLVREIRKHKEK
KRAS-G12D, sequence (P01116 with tags, fused parts or gaps isoform P01116-2 G12D): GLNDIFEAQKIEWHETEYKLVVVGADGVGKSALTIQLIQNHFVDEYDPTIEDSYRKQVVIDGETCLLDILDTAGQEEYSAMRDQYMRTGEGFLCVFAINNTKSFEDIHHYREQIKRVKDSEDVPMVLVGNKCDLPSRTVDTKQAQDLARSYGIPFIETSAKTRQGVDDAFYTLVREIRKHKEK
KRAS-G12V, sequence (P01116 with tags, fused parts or gaps isoform P01116-2 G12V): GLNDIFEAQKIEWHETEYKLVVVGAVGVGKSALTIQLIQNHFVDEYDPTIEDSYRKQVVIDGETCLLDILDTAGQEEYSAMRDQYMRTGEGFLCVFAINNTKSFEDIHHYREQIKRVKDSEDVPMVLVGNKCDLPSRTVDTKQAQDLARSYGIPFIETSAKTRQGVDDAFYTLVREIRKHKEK

As to `C[C@@]1(O)COCCN(c2nc(OC[C@@]34CCCN3C[C@H](F)C4)nc3c(F)c4c(-c5c(C6CC6)c(Cl)cc6[nH]ncc56)nccn4c23)C1` [Ex-305, (S)-4-(9-(6-chloro-5-cyclopropyl-1H-indazol-4-yl)-10-fluoro-2-(((2R,7aS)-2-fluorotetrahydro-1H-pyrrolizin-7a(5H)-yl)methoxy)pyrazino[1′,2′:1,5]pyrrolo[3,2-d]pyrimidin-4-yl)-6-methyl-1,4-oxazepan-6-ol], the IC50 in the assay with SW620 cells was 54.7 nM; in the assay with AsPC-1 cells (KRAS-G12D, 2 hours) it was 212 nM; at KRAS-G12D, 11.6 nM; on KRAS-WT, 37 nM; on KRAS-G12V, 23.8 nM; in the assay with MKN-1 cells it was 93 nM.
Take `Cc1c(C(F)(F)F)c(-c2nccc3c2sc2nc(OC[C@@]45CCCN4C[C@H](F)C5)nc(N4CCOC[C@@](C)(O)C4)c23)c2cn[nH]c2c1F` [Ex-44, (6S)-4-(8-(7-fluoro-6-methyl-5-(trifluoromethyl)-1H-indazol-4-yl)-2-(((2R,7aS)-2-fluorotetrahydro-1H-pyrrolizin-7a(5H)-yl)methoxy)pyrido[4′,3′:4,5]thi-eno[2,3-d]pyrimidin-4-yl)-6-methyl-1,4-oxazepan-6-ol]: the IC50 with SW620 cells turned out to be 281 nM; in the assay with AsPC-1 cells (KRAS-G12D, 2 hours), 452 nM; at KRAS-G12D, 141 nM; on KRAS-WT, 281 nM; at KRAS-G12V, 242 nM; in the assay on MKN-1 cells, 373 nM.
Consider `C[C@@]1(O)COCCN(c2nc(OC[C@@]34CCCN3C[C@H](F)C4)nc3sc4c(-c5c6c(cc7[nH]ncc57)C5CC5C6)nccc4c23)C1` (stereo partly drawn) [Ex-91, (6S)-4-(2-(((2R,7aS)-2-fluorotetrahydro-1H-pyrrolizin-7a(5H)-yl)methoxy)-8-(5,5a,6,6a-tetrahydro-1H-cyclopropa[3,4]cyclopen-ta[1,2-f]indazol-4-yl)pyrido[4′,3′:4,5]thieno [2,3-d]pyrimidin-4-yl)-6-methyl-1,4-oxazepan-6-ol], for which the IC50 in the assay on AsPC-1 cells (KRAS-G12D, 2 hours) is 399 nM; on KRAS-G12D it was 65 nM; on KRAS-WT it was 129 nM; on KRAS-G12V, 103 nM.
Consider `Cc1cc2[nH]ncc2c(-c2nccn3c2c(Cl)c2nc(OC[C@@]45CCCN4C[C@H](F)C5)nc(N4CCOC[C@@](C)(O)C4)c23)c1C(F)(F)F` [Ex-299, (S)-4-(10-chloro-2-(((2R,7aS)-2-fluorotetrahydro-1H-pyrrolizin-7a(5H)-yl)methoxy)-9-(6-methyl-5-(trifluoromethyl)-1H-indazol-4-yl)pyrazino[1′,2′:1,5]pyrrolo[3,2-d]pyrimidin-4-yl)-6-methyl-1,4-oxazepan-6-ol], for which the IC50 in the assay on AsPC-1 cells (KRAS-G12D, 2 hours) was found to be 1450 nM; on KRAS-G12D, 115 nM; on KRAS-WT, 293 nM; at KRAS-G12V, 93.1 nM.
As to `Cc1cc2[nH]ncc2c(-c2nccc3c2sc2nc(OC[C@@]45CCCN4C[C@H](F)C5)nc(N4CCOC[C@@](C)(O)C4)c23)c1C(C)(F)F` [Ex-41, (6S)-4-(8-(5-(1,1-difluoroethyl)-6-methyl-1H-indazol-4-yl)-2-(((2R,7aS)-2-fluorotetrahydro-1H-pyrrolizin-7a(5H)-yl)methoxy)pyrido[4′,3′:4,5]thi-eno[2,3-d]pyrimidin-4-yl)-6-methyl-1,4-oxazepan-6-ol], the half-inhibitory concentration (IC50) came to 635 nM with AsPC-1 cells (KRAS-G12D, 2 hours); 121 nM on KRAS-G12D; 260 nM at KRAS-WT; 166 nM at KRAS-G12V.
Consider `C=C1CN2C[C@@H](F)C[C@@]2(COc2nc(N3CCOC[C@@](C)(O)C3)c3c(n2)sc2c(-c4c(C5CC5)c(Cl)cc5[nH]ncc45)nccc23)C1` [Ex-222, (6S)-4-(8-(6-chloro-5-cyclopropyl-1H-indazol-4-yl)-2-(((2S,7aR)-2-fluoro-6-methylenetetra-hydro-1H-pyrrol-izin-7a(5H)-yl)methoxy)pyrido [4′,3′:4,5]thieno[2,3-d]pyrimidin-4-yl)-6-methyl-1,4-oxaze-pan-6-ol], for which the IC50 was found to be 246 nM in the assay with AsPC-1 cells (2 hours compound incubation), 29.3 nM at KRAS-G12D, 104 nM at KRAS-WT and 46 nM on KRAS-G12V.
As for `C[C@@]1(O)COCCN(c2nc(OC[C@]3(CN4C[C@H]5COC[C@H]5C4)CC3(F)F)nc3sc4c(-c5c(C6(F)CC6)c(Cl)cc6[nH]ncc56)nccc4c23)C1` [Ex-235, (6S)-4-(8-(6-chloro-5-(1-fluorocyclopropyl)-1H-indazol-4-yl)-2-(((R)-2,2-difluoro-1-(((3aR,6aS)-tetrahydro-1H-furo[3,4-c]pyrrol-5(3H)-yl)methyl)cyclopropyl)metho-xy)pyrido[4′,3′:4,5]thieno[2,3-d]pyrimidin-4-yl)-6-methyl-1,4-oxazepan-6-ol], the IC50 in the assay on AsPC-1 cells (2 hours compound incubation) was determined as 206 nM; on KRAS-G12D it was 3.86 nM; on KRAS-WT it was 31.6 nM; at KRAS-G12V it was 19.4 nM.
In the case of `Cn1c2nc(OC[C@@]34CCCN3C[C@H](F)C4)nc(N3CCOC[C@@](C)(O)C3)c2c2ccnc(-c3c(C4CC4)c(Cl)cc4[nH]ncc34)c21` (single isomer, unassigned) [Ex-2], the 50% inhibitory concentration (IC50) is 426 nM in the assay on AsPC-1 cells (KRAS-G12D, 2 hours); 35.4 nM on KRAS-G12D; 64 nM at KRAS-WT; 36.8 nM at KRAS-G12V.
On to `Cc1cc2[nH]ncc2c(-c2nccc3c2sc2nc(OC[C@@]45CCCN4C[C@H](F)C5)nc(NCC4COC4)c23)c1C(F)(F)F` [Ex-186, 2-(((2R,7aS)-2-fluorotetra-hydro-1H-pyrrolizin-7a(5H)-yl)methoxy)-8-(6-methyl-5-(trifluorometh-yl)-1H-indazol-4-yl)-N-(oxetan-3-ylmethyl)pyrido [4′,3′:4,5]thieno[2,3-d] pyrimidin-4-amine], for which the IC50 with AsPC-1 cells (2 hours compound incubation) was 2490 nM; at KRAS-G12D, 409 nM; on KRAS-WT it was 980 nM; on KRAS-G12V it was 436 nM.
`Cc1cc2[nH]ncc2c(-c2nccc3c2sc2nc(OC[C@@]45CCCN4C[C@H](F)C5)nc(N4CCOCC(O)(CF)C4)c23)c1C(F)(F)F` (stereo partly drawn) [Ex-202, 6-(fluoromethyl)-4-(2-(((2R,7aS)-2-fluorotetra-hydro-1H-pyrrolizin-7a(5H)-yl)methoxy)-8-(6-methyl-5-(trifluoro-methyl)-1H-indazol-4-yl)-pyrido[4′,3′:4,5]thieno [2,3-d]pyrimidin-4-yl)-1,4-oxazepan-6-ol]: the IC50 was found to be 701 nM with AsPC-1 cells (2 hours compound incubation), 97.5 nM at KRAS-G12D, 292 nM at KRAS-WT and 229 nM on KRAS-G12V.

The term IC50 denotes the concentration needed to halve the response being measured.

Source of the values: US20260176289A1, “SMALL MOLECULE INHIBITORS OF KRAS PROTEINS” (Merck Sharp & Dohme LLC, priority 2022, published 2026).
